Legend:
Type in all cases: physicochemical
[1] = Transformation by heating and slurry in acetone-water mixture (20:80), form determined by XRD
Procedure: A sample of zolmitriptan (6 g) was placed in a glass flask with solvent and heated to reflux until the zolmitriptan dissolved. The zolmitriptan was cooled to room temperature while stirring, and left at 4° C. overnight. The mixture was filtered and the solid obtained was divided in half. One half of the solid was labeled “wet” and the other half was dried in a vacuum oven at about 60° C.-70° C. overnight and labeled as “dried.”
One third of the wet portion of each sample was separated for XRD, and marked as “_w” . One third of the dried portion of each sample was separated for XRD, and marked as “_d” . For example, “1w” refers to the wet portion of sample 1 analyzed by XRD before slurry in acetone/water, and “1d” refers to the dried portion of sample 1 analyzed by XRD before slurry in acetone/water.
The remaining two-thirds of the wet sample was weighed, placed in a glass flask containing 10 v/w of acetone:water (20:80), stirred for about 30 minutes at room temperature, and left at about 4° C. overnight. The mixture was filtered and the solid obtained was divided in half. One half was labeled “_w-ac-w.” The other half was dried in a vacuum oven at about 60° C.-70° C. overnight, and labeled “_w-ac-d.” For example, “1w-ac-w” refers to the portion of the wet sample resulting from slurry in acetone/water, while “1w-ac-d” refers to the portion of the wet sample resulting from slurry in acetone/water that was dried.
Likewise, the remaining two-thirds of the dry sample was weighed, placed in a glass flask containing 10 v/w of acetone:water (20:80), stirred for about 30 minutes at room temperature, and left at about 4° C. overnight. The mixture was filtered and the solid obtained was divided in half. One half was labeled “_d-ac-w.” The other half was dried in a vacuum oven at about 60° C.-70° C. overnight, and labeled “_d-ac-d.” For example, “1d-ac-w” refers to the portion of the dry sample resulting from slurry in acetone/water, while “1d-ac-d” refers to the portion of the dry sample resulting from slurry in acetone/water that was then dried.

[2] = Transformation by pressing (crystal form before and after pressing); details: for Crystal Form after pressing: 100 mg pressed with approximately 1300 psi during 2 minutes
[3] = Polymorphic stability when maintained at room temperature
[4] = Transformation by slurry in other solvents (n-hexane, toluene, water) and drying, form determined by XRD
Text: Similarly to example 6 Zolmitriptan samples were slurried from other solvents or solvent systems after dissolution and precipitation from a specific solvent.

[5] = Transformation of zolmitriptan crystal forms by heating in a conventional oven, form determined by XRD; details: about 1.5 to 2 hours, conventional oven, XRD
Procedure: Zolmitriptan (0.5 g) crystalline forms were heated in a conventional oven for a period of about 1.5 to 2 hours at different temperatures. The crystal form of the samples was determined by XRD before and after heating.

[6] = Toluene, dried 63 °C under reduced pressure
[7] = Water, dried 63 °C under reduced pressure
[8] = immersed in 10 v/w Toluene, filtered, sucked ½ hour on Buchner
[9] = immersed in 10 v/w Water, filtered, sucked ½ hour on Buchner
[10] = immersed in 10 v/w n-Hexane, filtered, sucked ½ hour on Buchner
[11] = n-Hexane, dried 63 °C under reduced pressure

SMILES: CN(C)CCc1c[nH]c2ccc(C[C@H]3COC(=O)N3)cc12 [Sample 1]
- Resulting Crystal Form ([1]; _d-ac-d: dried sample slurried in acetone:water (20:80), then dried in vacuum oven 60-70 °C overnight): Form A
- Resulting Crystal Form ([1]; _w-ac-w: wet sample slurried in 10 v/w acetone:water (20:80), 30 min room temperature, 4 °C overnight, filtered, not dried, listed as 1w-ac-w): Form A
- Resulting Crystal Form ([1]; _w: wet portion after crystallization, before slurry in acetone/water, listed as 1w): Form A

SMILES: CN(C)CCc1c[nH]c2ccc(C[C@H]3COC(=O)N3)cc12 [Form H]
- Crystal Form after pressing [2]: Form H
- transformation to other crystal form on pressing [2]: not transform to other crystal form
- polymorphic stability (conversion to Form A) [3]: do not convert to Form A

SMILES: CN(C)CCc1c[nH]c2ccc(C[C@H]3COC(=O)N3)cc12 [Form J]
- Crystal Form after pressing [2]: Form J
- transformation to other crystal form on pressing [2]: not transform to other crystal form
- polymorphic stability (conversion to Form A) [3]: do not convert to Form A

SMILES: CN(C)CCc1c[nH]c2ccc(C[C@H]3COC(=O)N3)cc12 [Form S]
- Crystal Form after pressing [2]: Form S
- transformation to other crystal form on pressing [2]: not transform to other crystal form
- XRD sample (form after treatment) [4, 6]: Form A + ˜10% K
- XRD sample (form after treatment) [4, 7]: Form A
- XRD sample (form after treatment) [4, 8]: Form K
- XRD sample (form after treatment) [4, 9]: Form A + ˜10% D
- XRD sample (form after treatment) [4, 10]: Form D
- XRD sample (form after treatment) [4, 11]: Form A + ˜20% D
- polymorphic stability (conversion to Form A) [3]: do not convert to Form A

SMILES: CN(C)CCc1c[nH]c2ccc(C[C@H]3COC(=O)N3)cc12 [Form I]
- Crystal Form after pressing [2]: Form I
- transformation to other crystal form on pressing [2]: not transform to other crystal form
- XRD sample (form after treatment) [4, 6]: Form A
- XRD sample (form after treatment) [4, 7]: Form A
- XRD sample (form after treatment) [4, 8]: Form K
- XRD sample (form after treatment) [4, 9]: Form A
- XRD sample (form after treatment) [4, 10]: Form D
- XRD sample (form after treatment) [4, 11]: Form A
- polymorphic stability (conversion to Form A) [3]: do not convert to Form A

SMILES: CN(C)CCc1c[nH]c2ccc(C[C@H]3COC(=O)N3)cc12 [Sample 8]
- Resulting Crystal Form ([1]; _w-ac-w: wet sample slurried in 10 v/w acetone:water (20:80), 30 min room temperature, 4 °C overnight, filtered, not dried, listed as 8w-ac-w): Form K + ˜30% A
- Resulting Crystal Form ([1]; _w: wet portion after crystallization, before slurry in acetone/water, listed as 8w): Form K

SMILES: CN(C)CCc1c[nH]c2ccc(C[C@H]3COC(=O)N3)cc12 [Form K]
- Crystal Form after pressing [2]: Form K
- transformation to other crystal form on pressing [2]: not transform to other crystal form
- XRD sample (form after treatment) [4, 6]: Form A
- XRD sample (form after treatment) [4, 7]: Form A
- XRD sample (form after treatment) [4, 8]: Form K
- XRD sample (form after treatment) [4, 9]: Form A + ˜10% K
- XRD sample (form after treatment) [4, 10]: Form D
- XRD sample (form after treatment) [4, 11]: Form A
- polymorphic stability (conversion to Form A) [3]: do not convert to Form A

SMILES: CN(C)CCc1c[nH]c2ccc(C[C@H]3COC(=O)N3)cc12 [Form F]
- Crystal Form after pressing [2]: Form F
- transformation to other crystal form on pressing [2]: not transform to other crystal form

SMILES: CN(C)CCc1c[nH]c2ccc(C[C@H]3COC(=O)N3)cc12 [Form T]
- Crystal Form after pressing [2]: Form T
- transformation to other crystal form on pressing [2]: not transform to other crystal form

SMILES: CN(C)CCc1c[nH]c2ccc(C[C@H]3COC(=O)N3)cc12 [Sample 4]
- Resulting Crystal Form ([1]; _w-ac-w: wet sample slurried in 10 v/w acetone:water (20:80), 30 min room temperature, 4 °C overnight, filtered, not dried, listed as 4w-ac-w): Form A
- Resulting Crystal Form ([1]; _w: wet portion after crystallization, before slurry in acetone/water, listed as 4w): Form A

SMILES: CN(C)CCc1c[nH]c2ccc(C[C@H]3COC(=O)N3)cc12 [Sample 5]
- Resulting Crystal Form ([1]; _w-ac-w: wet sample slurried in 10 v/w acetone:water (20:80), 30 min room temperature, 4 °C overnight, filtered, not dried, listed as 5w-ac-w): Form A
- Resulting Crystal Form ([1]; _w: wet portion after crystallization, before slurry in acetone/water, listed as 5w): Form D

SMILES: CN(C)CCc1c[nH]c2ccc(C[C@H]3COC(=O)N3)cc12 [Form L]
- Crystal form after heating ([5]; heating temp. 90 °C): A +
- Crystal Form after pressing [2]: Form L
- transformation to other crystal form on pressing [2]: not transform to other crystal form

SMILES: CN(C)CCc1c[nH]c2ccc(C[C@H]3COC(=O)N3)cc12 [Sample 7]
- Resulting Crystal Form ([1]; _w-ac-w: wet sample slurried in 10 v/w acetone:water (20:80), 30 min room temperature, 4 °C overnight, filtered, not dried, listed as 7w-ac-w): Form K + ˜30% A
- Resulting Crystal Form ([1]; _w: wet portion after crystallization, before slurry in acetone/water, listed as 7w): Form K

SMILES: CN(C)CCc1c[nH]c2ccc(C[C@H]3COC(=O)N3)cc12 [Form R]
- XRD sample (form after treatment) [4, 7]: Form A
- XRD sample (form after treatment) [4, 8]: Form K
- XRD sample (form after treatment) [4, 9]: Form A
- XRD sample (form after treatment) [4, 10]: Form D
- XRD sample (form after treatment) ([4]; n-Hexane, dried 63 °C under reduced pressure, listed as R): Essent.Am D

SMILES: CN(C)CCc1c[nH]c2ccc(C[C@H]3COC(=O)N3)cc12 [Form D]
- Crystal Form after pressing [2]: Form D
- transformation to other crystal form on pressing [2]: not transform to other crystal form
- polymorphic stability (conversion to Form A) [3]: do not convert to Form A

SMILES: CN(C)CCc1c[nH]c2ccc(C[C@H]3COC(=O)N3)cc12 [Form M]
- Crystal Form after pressing [2]: Form M
- transformation to other crystal form on pressing [2]: not transform to other crystal form

SMILES: CN(C)CCc1c[nH]c2ccc(C[C@H]3COC(=O)N3)cc12 [Sample 6]
- Resulting Crystal Form ([1]; _w-ac-w: wet sample slurried in 10 v/w acetone:water (20:80), 30 min room temperature, 4 °C overnight, filtered, not dried, listed as 6w-ac-w): Form A
- Resulting Crystal Form ([1]; _w: wet portion after crystallization, before slurry in acetone/water, listed as 6w): Form S

SMILES: CN(C)CCc1c[nH]c2ccc(C[C@H]3COC(=O)N3)cc12 [Form O]
- Crystal Form after pressing [2]: Form O
- transformation to other crystal form on pressing [2]: not transform to other crystal form

SMILES: CN(C)CCc1c[nH]c2ccc(C[C@H]3COC(=O)N3)cc12 [Form E]
- XRD sample (form after treatment) ([4]; Toluene, dried 63 °C under reduced pressure, listed as E): Form K
- XRD sample (form after treatment) ([4]; immersed in 10 v/w Water, filtered, sucked ½ hour on Buchner, listed as E): Form A
- XRD sample (form after treatment) [4, 10]: Form D
- XRD sample (form after treatment) ([4]; n-Hexane, dried 63 °C under reduced pressure, listed as E): Form A + ˜30% D

SMILES: CN(C)CCc1c[nH]c2ccc(C[C@H]3COC(=O)N3)cc12 [Form G]
- Crystal Form after pressing [2]: Form G
- transformation to other crystal form on pressing [2]: not transform to other crystal form
- XRD sample (form after treatment) [4, 6]: Form A + ˜10% K
- XRD sample (form after treatment) [4, 7]: Form A
- XRD sample (form after treatment) [4, 8]: Form K
- XRD sample (form after treatment) [4, 9]: Form A
- XRD sample (form after treatment) [4, 10]: Form D
- XRD sample (form after treatment) [4, 11]: Essent.Am D
- polymorphic stability (conversion to Form A) [3]: do not convert to Form A

SMILES: CN(C)CCc1c[nH]c2ccc(C[C@H]3COC(=O)N3)cc12 [Sample 3]
- Resulting Crystal Form ([1]; _w-ac-w: wet sample slurried in 10 v/w acetone:water (20:80), 30 min room temperature, 4 °C overnight, filtered, not dried, listed as 3w-ac-w): Form A
- Resulting Crystal Form ([1]; _w: wet portion after crystallization, before slurry in acetone/water, listed as 3w): Form G

SMILES: CN(C)CCc1c[nH]c2ccc(C[C@H]3COC(=O)N3)cc12 [Sample 2]
- Resulting Crystal Form ([1]; _d-ac-w: dried sample slurried in 10 v/w acetone:water (20:80), 30 min room temperature, 4 °C overnight, filtered, not dried): Form A
- Resulting Crystal Form ([1]; _d: portion dried in vacuum oven 60-70 °C overnight, before slurry in acetone/water): Form A
- Resulting Crystal Form ([1]; _w-ac-d: wet sample slurried in acetone:water (20:80), then dried in vacuum oven 60-70 °C overnight): Form A
- Resulting Crystal Form ([1]; _w-ac-w: wet sample slurried in 10 v/w acetone:water (20:80), 30 min room temperature, 4 °C overnight, filtered, not dried, listed as 2w-ac-w): Form A
- Resulting Crystal Form ([1]; _w: wet portion after crystallization, before slurry in acetone/water, listed as 2w): Form Q

SMILES: CN(C)CCc1c[nH]c2ccc(C[C@H]3COC(=O)N3)cc12 [Form P]
- Crystal Form after pressing [2]: Form P
- transformation to other crystal form on pressing [2]: not transform to other crystal form
- polymorphic stability (conversion to Form A) [3]: do not convert to Form A

SMILES: CN(C)CCc1c[nH]c2ccc(C[C@H]3COC(=O)N3)cc12 [Form Q]
- Crystal form after heating ([5]; heating temp. 60 °C): A +

Source: patent US20060211751A1, “Zolmitriptan crystal forms” (priority 2004, published 2006)
